Results on one compound are retold here after ChEMBL document CHEMBL6096665 (Eur J Med Chem, 2025).

The target of the test is T1, Bile acid receptor (Homo sapiens, UniProt Q96RI1).
T1 sequence (Q96RI1 whole entry): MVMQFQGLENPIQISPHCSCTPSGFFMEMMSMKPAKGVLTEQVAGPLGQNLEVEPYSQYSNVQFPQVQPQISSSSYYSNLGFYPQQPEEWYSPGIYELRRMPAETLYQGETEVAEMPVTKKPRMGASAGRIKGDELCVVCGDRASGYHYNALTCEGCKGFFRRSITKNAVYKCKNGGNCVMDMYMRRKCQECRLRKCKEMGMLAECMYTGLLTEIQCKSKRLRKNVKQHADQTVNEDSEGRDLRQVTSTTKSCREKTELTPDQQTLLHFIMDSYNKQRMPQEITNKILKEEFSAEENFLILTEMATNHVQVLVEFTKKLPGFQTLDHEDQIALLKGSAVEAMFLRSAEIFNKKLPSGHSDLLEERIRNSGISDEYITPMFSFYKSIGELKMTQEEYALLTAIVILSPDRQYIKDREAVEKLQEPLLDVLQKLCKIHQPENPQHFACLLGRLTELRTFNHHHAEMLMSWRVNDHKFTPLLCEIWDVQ
Nature of the test: Agonist activity at FXR-LBD (unknown origin) incubated for 3 hrs using fluorescein coactivator peptide by FRET assay.

Usually EC50 stands for the concentration that produces a half-maximal response. The low end stands for a more potent agent, the high end for a less potent agent. In the case of `O=C(O)c1ccc(OCc2ccc(OCc3c(-c4c(Cl)cccc4Cl)noc3C3CC3)cc2)cc1`, the EC50 is 253 nM.
